Results from patent publication US9045415B2, “Targeting of EWS-FLI1 as anti-tumor therapy” (Georgetown University, priority 2006, dated 2015).

Columns and labels:
[1] = tested on: neuroblastoma SKNAS cells; test: Monolayer cell growth, neuroblastoma; assay type: cell-based; conditions: SK-N-AS, 72 hours continuous presence
Description: FIGS. 8A-E show E9RP inhibits ESFT cell growth. In FIGS. 8A and 8B, E9RP is the peptide region of RHA (SEQ ID NO:29) fused to the Penetratin peptide (from the Antennapedia homeodomain; SEQ ID NO:34) and contains amino-terminal fluorescein (FITC). […] Neither lipids nor electricity were used for transduction of peptides into cells. Confocal microscopy identified peptide throughout cells with nuclear uptake. Nuclear uptake was confirmed by DAPI staining. […] Cell lines were placed in 96-well plates with either vehicle alone (●), or E9RP (10 μM) on days 0, 3 and 5 (▴). No lipid or other transfection method was utilized. This represents two experiments with similar results. FIG. 8D depicts dose response of ESFT 1 to either wild-type or single amino-acid mutant peptides. (▪) wild-type E9RP, (E9R (SEQ ID NO:29) fused to the Penetratin peptide (SEQ ID NO:34)), (▾)(E9RP (P2A peptide (SEQ ID NO:30) fused to the Penetratin peptide (SEQ ID NO:34)), (▴)E9RP (D5A peptide (SEQ ID NO:31) fused to the Penetratin peptide (SEQ ID NO:34)). Growth normalized to treating cells with the 16 aa Antp sequence alone (SEQ ID NO:34). FIG. 8E is a comparison of wild-type versus mutant peptides in ESFT and NB cells.
In FIG. 13A, recombinant EWS-FLI1 was treated with NSC635437 for 30 minutes. GST-RHA (630-1020) was added and the complexes were then precipitated with antibody to EWS-FLI1 and Protein G beads. Resolved complexes showing the immunoprecipitated complex control without compound are in lanes 3 (0.1% DMSO) and 5 (0.01% DMSO). […] ESFT TC32 (◯) and neuroblastoma SK-N-AS (▪) were grown for 72 hours in the continuous presence of NSC635437. Cells were incubated in MTT reagent for 4 hours and the dried precipitate was dissolved isopropanol and the absorbance read at 570 nm. Each cell line was standardized to the growth of the DMSO control.
FIG. 30 provides data to show E9R peptide prevents EWS-FLI1 binding to RHA with specific detrimental effects upon ESFT growth and transformation. […] Scale bar equals 20 μm. […] Only expression of EGFP-E9R in TC71 reduced anchorage independent growth. […] Scale bar equals 20 μm.

[2] = tested on: ESFT xenografts (TC71 and CHP-100); test: ESFT orthotopic xenografts treated with YK-4-279; assay type: in vivo, mice
Protocol: Xenografts were established with injection of either ESFT (CHP-100 or TC71) or Prostate cancer (PC3) cells. […] Single experiment growth curves depicted are representative of five independent experiments. […] Tumor volumes at day 14 after treatment initiation compared across 5 experiments (DMSO n=19, YK-4-279 n=25, p<0.0001, by Mann-Whitney test).
One million TC71 or CHP-100 cells in 100 μL HBSS were injected orthotopically into the gastrocnemius muscle of 4-8 week old SCID/bg mice (Taconic, Germantown, N.Y.). Prostate cancer xenografts were established by subcutaneous injection of 5 million PC3 cells into the flanks of 4-8 week old nude mice (Taconic). Mice were randomized to receive three times per week intraperitoneal injections of DMSO, YK-4-279 at 1.5 mg/dose when tumors were palpable. Each of the animal experiments was begun with 10 mice that were randomized into treatment and control groups when the tumors reached palpable size. In the control groups some tumors exceeded the IACUC maximal size (2 cm in any dimension) and were euthanized prior to day 14 and thus not included in the day 14 analysis (FIG. 6c). Tumor length and width were measured every 2-4 days and volume was calculated using the formula […] where D is the longest diameter and d is the shorter diameter. Xenograft studies were approved by the Memorial Sloan-Kettering Cancer Center Institutional Animal Care and Use Committee.

[3] = tested on: EWS-FLI1; test: SPR displacement assay of E9R from EWS-FLI1; assay type: binding
Description: FIG. 31 provides data showing a small molecule binding to EWS-FLI1 and displaces E9R from EWS-FLI1. […] Aromatic functionalization produced YK-4-279 a para-methoxy derivative of NSC635437. […] A FLI1 antibody complexed EWS-FLI1 and precipitated it from the solution.
An aromatic optimization strategy was used to design analogs to improve upon the activity of NSC635437.

[4] = tested on: ES925; test: Cell growth, primary ESFT line ES925; assay type: cell-based; conditions: Homo sapiens, 72 h; 3 days; read-out: anti-proliferative IC50
Protocol: FIG. 33 provides data showing YK-4-279 is potent and specific inhibitor of ESFT. […] Cell number was measured by MTT or WST reduction after seven days in culture. […] FIG. 33D cell lines expressing EWS-FLI1 compared to non-EWS-FLI1 malignant cell lines following 3 days in culture to establish the IC50 using WST assay. […] Graph plots level of fluorescence in treated divided by untreated lysate. […] Scale bar equals 200 μm.

[5] = tested on: cyclin D levels in TC32 cells; test: Cyclin D immunoblot, TC32 cells; assay type: cell-based; conditions: TC32 cells treated for 14 hours
[6] = tested on: A673 cells; test: YK-4-279 toxicity in shRNA-modified ESFT cells; assay type: cell-based; conditions: for IC50: Homo sapiens
Protocol: FIG. 39A provides data showing HEC and HFK, non-transformed endocervical cells and keritinocytes, treated with YK-4-279 for 72 hours and assayed for viability using WST reduction. FIG. 39B provides data showing TC71 cells treated for 16 hours with YK-4-279 or doxorubicin. Lysates were assayed for cleavage of AMC-DEVD by induced caspase-3 and fluorescence was measured. FIG. 39C provides data showing that RHA reduced TC71 cells were more resistant to YK-4-279 treatment than wild-type cells. FIG. 39D provides data showing an shRNA tet-inducible expression vector stably transfected into A673 (ESFT) cells to reduce EWS-FLI1 levels. FIG. 39E provides data showing that EWS-FLI1 reduced A673 cells were more resistant to YK-4-279 treatment than wild-type cells.
shRNA (short hairpin RNA) against RHA was purchased from Open Biosystems (Huntsville, Ala.) Both virus production and purification were done according to Open Biosystems protocols. (For designing shRNA see McIntyre G. J. et al. “Design and cloning strategies for constructing shRNA expression vectors.” BMC Biotechnol. (2006) 6:1)
In order to further support for the target specificity of YK-4-279 toxicity upon ESFT cells, the levels of each of the critical proteins were reduced by using shRNA in A673 cells42. […] When EWS-FLI1 was reduced using shRNA, the IC50 increased 10-fold from 0.5 μM to approximately 5 μM (FIG. 39D, FIG. 39E).

melting point [°C] | SMILES | cell growth (MTT) [1] | tumor growth ([2]; 60-75 mg/kg) | tumor growth rate ([2]; CHP-100, 1.5 mg/dose i.p. three times per week) | increase in caspase-3 activity in tumors compared to control animals ([2]; CHP-100 xenograft tumors, immunohistochemistry) [fold] | overall response, tumor volumes at day 14, five experiments ([2]; TC71 and CHP-100, 1.5 mg/dose) | pathological analysis of treated animals ([2]; mouse, in vivo) | binding of E9R to EWS-FLI1 ([3]; 32 μM E9R with 10 μM YK-4-279) [R.U.] | binding of E9R to EWS-FLI1 ([3]; 64 μM E9R with 10 μM YK-4-279) [R.U.] | IC50 [4] [nM] | cyclin D levels [5] | increase of IC50 when EWS-FLI1 was reduced [6] [fold] | IC50 ([6]; A673, EWS-FLI1 reduced using shRNA) [nM] | IC50 ([6]; A673, RHA reduced cells (shRNA)) [nM] | IC50 ([6]; A673, before EWS-FLI1 reduction) [nM] | IC50 ([6]; A673, control shRNA (targeting luciferase)) [nM]
194 to 196 | O=C(CC1(O)C(=O)Nc2c(Cl)ccc(Cl)c21)c1ccc(Cl)cc1 (stereo not shown) [NSC635437, 4,7-Dichloro-3-[2-(4-chlorophenyl)-2-oxoethyl]-3-hydroxyl-1,3-dihydro-2H-indol-2-one] | not neuroblastoma cell growth |  |  |  |  |  |  |  |  |  |  |  |  |  | 
 | COc1ccc(C(=O)CC2(O)C(=O)Nc3c(Cl)ccc(Cl)c32)cc1 (stereo not shown) [YK-4-279, 4,7-Dichloro-3-hydroxy-3-[2-(4-methoxyphenyl)-2-oxoethyl]-1,3-dihydro-2H-indol-2-one] |  | significantly reduced tumor growth | reduced | 3 | marked overall tumor reduction | did not show any signs of toxicity except changes related to IP injection | 5 | 7 | 1000 | nearly eliminated cyclin D levels | 10 | ~5000 | > 10000 | 500 | < 1000
